Reference: US20260007681A1, “INDOLE DERIVATIVES AS ESTROGEN RECEPTOR DEGRADERS” (REGENTS OF THE UNIVERSITY OF MICHIGAN, priority 2022, published 2026)

Each compound was assayed against ER (Homo sapiens (Human), UniProt P03372) (assay: Western blot analysis (Compounds B1-B278)). Conditions: ER degradation by traditional Western blot; DC50 classes.
Type: cell-based
Procedure, shortened: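 Relative target-protein levels come from densitometry of immunoblots, normalized to GAPDH. Lysates from treated cells were prepared in RIPA buffer (pH 7.6) containing protease inhibitors, and equal protein amounts, checked by BCA, were separated on 10% gels and blotted onto PVDF.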

ER, sequence (P03372 whole entry): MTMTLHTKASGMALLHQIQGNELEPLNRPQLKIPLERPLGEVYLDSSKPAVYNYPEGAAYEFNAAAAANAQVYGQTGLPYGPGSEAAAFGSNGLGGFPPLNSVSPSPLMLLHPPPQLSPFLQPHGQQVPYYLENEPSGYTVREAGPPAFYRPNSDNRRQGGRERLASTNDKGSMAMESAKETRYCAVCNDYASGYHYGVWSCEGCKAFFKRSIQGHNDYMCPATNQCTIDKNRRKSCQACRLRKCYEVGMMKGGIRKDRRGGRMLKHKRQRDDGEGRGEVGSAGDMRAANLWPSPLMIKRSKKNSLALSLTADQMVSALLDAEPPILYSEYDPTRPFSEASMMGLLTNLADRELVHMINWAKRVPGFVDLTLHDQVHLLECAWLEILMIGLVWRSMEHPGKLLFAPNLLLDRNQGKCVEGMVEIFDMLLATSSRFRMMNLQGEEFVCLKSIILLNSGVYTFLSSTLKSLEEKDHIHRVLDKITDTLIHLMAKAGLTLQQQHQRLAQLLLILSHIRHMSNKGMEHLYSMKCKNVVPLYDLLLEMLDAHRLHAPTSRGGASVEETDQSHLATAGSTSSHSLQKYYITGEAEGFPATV

Row | Traditional Western Degradation Potency | SMILES
1 | C (“C”: >100 nM) | C[C@@H]1Cc2c([nH]c3ccccc23)[C@@H](c2ccc(C3=CCC4(CC3)CCN(C(=O)CN3Cc5cc6c(cc5C3)C(=O)N(C3CCC(=O)NC3=O)C6=O)CC4)cc2F)N1CC(F)F (stereo partly drawn) [Compound B241, 6-(2-(9-(4-((1R,3R)-2-(2,2-difluoroethyl)-3-methyl-2,3,4,9-tetrahydro-1H-pyrido[3,4-b]indol-1-yl)-3-fluorophenyl)-3-azaspiro[5.5]undec-8-en-3-yl)-2-oxoethyl)-2-(2,6-dioxopiperidin-3-yl)-6,7-dihydropyrrolo[3,4-f]isoindole-1,3(2H,5H)-dione]
2 | A (“A”: <10 nM) | C[C@@H]1Cc2c([nH]c3ccccc23)[C@@H](c2c(F)cc(N3CC4(CN(C(=O)CN5Cc6cc7c(cc6C5)C(=O)N(C5CCC(=O)NC5=O)C7=O)C4)C3)cc2F)N1CC(F)F (stereo partly drawn) [Compound B25, 6-(2-(6-(4-((1R,3R)-2-(2,2-difluoroethyl)-3-methyl-2,3,4,9-tetrahydro-1H-pyrido[3,4-b]indol-1-yl)-3,5-difluorophenyl)-2,6-diazaspiro[3.3]heptan-2-yl)-2-oxoethyl)-2-(2,6-dioxopiperidin-3-yl)-6,7-dihydropyrrolo[3,4-f]isoindole-1,3(2H,5H)-dione]
3 | A (“A”: <10 nM) | C[C@@H]1Cc2c([nH]c3ccccc23)[C@@H](c2c(F)cc(N3CCC(N4CCN(CC(=O)N5Cc6cc7c(cc6C5)C(=O)N(C5CCC(=O)NC5=O)C7=O)CC4)CC3)cc2F)N1CC(F)F (stereo partly drawn) [Compound B35, 6-(2-(4-(1-(4-((1R,3R)-2-(2,2-difluoroethyl)-3-methyl-2,3,4,9-tetrahydro-1H-pyrido[3,4-b]indol-1-yl)-3,5-difluorophenyl)piperidin-4-yl)piperazin-1-yl)acetyl)-2-(2,6-dioxopiperidin-3-yl)-6,7-dihydropyrrolo[3,4-f]isoindole-1,3(2H,5H)-dione]
4 | C (“C”: >100 nM) | C[C@@H]1Cc2c([nH]c3ccccc23)[C@@H](c2ccc(C3CCC(C(=O)N4CCC(N5Cc6cc7c(cc6C5)C(=O)N(C5CCC(=O)NC5=O)C7=O)CC4)CC3)cn2)N1CC(F)F (stereo partly drawn) [Compound B234, 6-(1-(4-(6-((1S,3R)-2-(2,2-difluoroethyl)-3-methyl-2,3,4,9-tetrahydro-1H-pyrido[3,4-b]indol-1-yl)pyridin-3-yl)cyclohexane-1-carbonyl)piperidin-4-yl)-2-(2,6-dioxopiperidin-3-yl)-6,7-dihydropyrrolo[3,4-f]isoindole-1,3(2H,5H)-dione]
5 | C (“C”: >100 nM) | COc1cc([C@H]2CC[C@@H](C(=O)N3CCC(N4Cc5cc6c(cc5C4)C(=O)N(C4CCC(=O)NC4=O)C6=O)CC3)CC2)ncc1[C@@H]1c2[nH]c3ccccc3c2C[C@@H](C)N1CC(F)F (stereo partly drawn) [Compound B107, 6-(1-((1S,4s)-4-(5-((1R,3R)-2-(2,2-difluoroethyl)-3-methyl-2,3,4,9-tetrahydro-1H-pyrido[3,4-b]indol-1-yl)-4-methoxypyridin-2-yl)cyclohexane-1-carbonyl)piperidin-4-yl)-2-(2,6-dioxopiperidin-3-yl)-6,7-dihydropyrrolo[3,4-f]isoindole-1,3(2H,5H)-dione]
6 | C (“C”: >100 nM) | C[C@@H]1Cc2c([nH]c3ccccc23)[C@@H](c2c(F)cc(N3CC4(CCCN(CC(=O)N5Cc6cc7c(cc6C5)C(=O)N(C5CCC(=O)NC5=O)C7=O)C4)C3)cc2F)N1CC(F)F (stereo partly drawn) [Compound B45, 6-(2-(2-(4-((1R,3R)-2-(2,2-difluoroethyl)-3-methyl-2,3,4,9-tetrahydro-1H-pyrido[3,4-b]indol-1-yl)-3,5-difluorophenyl)-2,6-diazaspiro[3.5]nonan-6-yl)acetyl)-2-(2,6-dioxopiperidin-3-yl)-6,7-dihydropyrrolo[3,4-f]isoindole-1,3(2H,5H)-dione]
7 | A (“A”: <10 nM) | C[C@@H]1Cc2c([nH]c3ccccc23)[C@@H](c2c(F)cc(N3CC(C(=O)N4CCC(CN5Cc6cc7c(cc6C5)C(=O)N(C5CCC(=O)NC5=O)C7=O)CC4)C3)cc2F)N1CC(F)F (stereo partly drawn) [Compound B76, 6-((1-(1-(4-((1R,3R)-2-(2,2-difluoroethyl)-3-methyl-2,3,4,9-tetrahydro-1H-pyrido[3,4-b]indol-1-yl)-3,5-difluorophenyl)azetidine-3-carbonyl)piperidin-4-yl)methyl)-2-(2,6-dioxopiperidin-3-yl)-6,7-dihydropyrrolo[3,4-f]isoindole-1,3(2H,5H)-dione]
8 | B (“B”: 10-100 nM) | C[C@@H]1Cc2c([nH]c3ccccc23)[C@@H](c2c(F)cc(N3CC4(CCCN(CC(=O)N5Cc6cc7c(cc6C5)C(=O)N(C5CCC(=O)NC5=O)C7)C4)C3)cc2F)N1CC(F)F (stereo partly drawn) [Compound B46, 3-(6-(2-(2-(4-((1R,3R)-2-(2,2-difluoroethyl)-3-methyl-2,3,4,9-tetrahydro-1H-pyrido[3,4-b]indol-1-yl)-3,5-difluorophenyl)-2,6-diazaspiro[3.5]nonan-6-yl)acetyl)-1-oxo-3,5,6,7-tetrahydropyrrolo[3,4-f]isoindol-2(1H)-yl)piperidine-2,6-dione]
9 | C (“C”: >100 nM) | C[C@@H]1Cc2c([nH]c3ccccc23)[C@@H](c2c(F)cc(CN3CCC4(CCC(CN5Cc6cc7c(cc6C5)C(=O)N(C5CCC(=O)NC5=O)C7=O)CC4)CC3)cc2F)N1CC(F)F (stereo partly drawn) [Compound B101, 6-((3-(4-((1R,3R)-2-(2,2-difluoroethyl)-3-methyl-2,3,4,9-tetrahydro-1H-pyrido[3,4-b]indol-1-yl)-3,5-difluorobenzyl)-3-azaspiro[5.5]undecan-9-yl)methyl)-2-(2,6-dioxopiperidin-3-yl)-6,7-dihydropyrrolo[3,4-f]isoindole-1,3(2H,5H)-dione]
10 | C (“C”: >100 nM) | COc1cc([C@H]2CC[C@@H](C(=O)N3CCC(N4Cc5cc6c(cc5C4)C(=O)N(C4CCC(=O)NC4=O)C6=O)CC3)CC2)ccc1[C@@H]1c2[nH]c3ccccc3c2C[C@@H](C)N1CC(F)F (stereo partly drawn) [Compound B112, 6-(1-((1S,4s)-4-(4-((1R,3R)-2-(2,2-difluoroethyl)-3-methyl-2,3,4,9-tetrahydro-1H-pyrido[3,4-b]indol-1-yl)-3-methoxyphenyl)cyclohexane-1-carbonyl)piperidin-4-yl)-2-(2,6-dioxopiperidin-3-yl)-6,7-dihydropyrrolo[3,4-f]isoindole-1,3(2H,5H)-dione]
11 | B (“B”: 10-100 nM) | C[C@@H]1Cc2c([nH]c3ccccc23)[C@@H](c2c(F)cc(-c3cnc(C(=O)N4CCC(N5Cc6cc7c(cc6C5)C(=O)N(C5CCC(=O)NC5=O)C7=O)CC4)nc3)cc2F)N1CC(F)F (stereo partly drawn) [Compound B86, 6-(1-(5-(4-((1R,3R)-2-(2,2-difluoroethyl)-3-methyl-2,3,4,9-tetrahydro-1H-pyrido[3,4-b]indol-1-yl)-3,5-difluorophenyl)pyrimidine-2-carbonyl)piperidin-4-yl)-2-(2,6-dioxopiperidin-3-yl)-6,7-dihydropyrrolo[3,4-f]isoindole-1,3(2H,5H)-dione]
12 | B (“B”: 10-100 nM) | C[C@@H]1Cc2c([nH]c3ccccc23)[C@@H](c2c(F)cc(N3CCC(N4CC(C(=O)N5Cc6cc7c(cc6C5)C(=O)N(C5CCC(=O)NC5=O)C7)C4)CC3)cc2F)N1CC(F)F (stereo partly drawn) [Compound B60, 3-(6-(1-(1-(4-((1R,3R)-2-(2,2-difluoroethyl)-3-methyl-2,3,4,9-tetrahydro-1H-pyrido[3,4-b]indol-1-yl)-3,5-difluorophenyl)piperidin-4-yl)azetidine-3-carbonyl)-1-oxo-3,5,6,7-tetrahydropyrrolo[3,4-f]isoindol-2(1H)-yl)piperidine-2,6-dione]
